Measured values published in article PMC6499206, “Quantification of Volatile Metabolites Derived From Garlic (Allium sativum) in Human Urine” (Frontiers in Nutrition, 2019).

Assay: Quantification of garlic-derived metabolites in human urine after ingestion of 3 g raw garlic (SIDA, SAFE, HRGC-MS / HRGC-GC-MS)
Assay type: in vivo
Details: 3 g raw garlic
Source text: Human urine samples were obtained from 18 volunteers (age 22–38 years, mean 27 years; 11 females, 7 males); thereby, one volunteer conducted the whole experimental series twice. At the time of examination, volunteers reported no known illness that might have potentially influenced the metabolism or the excretion of urine. The test persons were instructed to avoid foods that were rich in sulfur-containing substances at the testing day as well as 2 days preceding the testing day, namely garlic, onion, wild garlic, chives, cabbage, and leek, and were only allowed to consume the garlic sample provided in the course of the experiments. Additionally, subjects were asked to keep records of the food (including food supplements) and beverages they consumed during these 3 testing days. Generally, the overall panelists' requirements were in accordance with our previous studies ([5], [16]).
On the sampling day, the outer garlic cloves of a whole garlic bulb were peeled and cut into ~3 mm cubes by using a garlic cutter (Genius GmbH, Limburg/Lahn, Germany). Subsequently these cubes were thoroughly mixed and aliquoted into 3 g portions. Three to four test persons conducted the experiment at the same day. Each test person was asked to ingest a garlic portion of 3 g. In total, eight consecutive urine samples were provided by each test person, comprising one whole urine set. The samples were collected in sterile brown glass bottles, with sampling times as follows: one sample was provided directly prior to garlic consumption. The series of the second to eighth sample was then obtained at about 0.5, 1, 2, 4, 6, 8, and 24 h after garlic consumption, respectively. Between the first urine sample (prior to garlic consumption) and the seventh urine sample (8 h after garlic consumption) test persons only spent urine at the specific time points mentioned before. Another sample was provided at the next morning (24 h after garlic consumption). Between the samples provided 8 and 24 h after garlic consumption no urine was collected. All samples were immediately placed into a −80°C freezer and were kept frozen until further analysis.
The samples of each set were termed according to their sampling time. The following list provides the time intervals that are related to the respective sample name: • - pre: before garlic consumption • - 0.5 h post: 0.4–0.8 h after garlic consumption • - 1 h post: 0.9–1.3 h after garlic consumption • - 2 h post: 1.8 h−2.2 h after garlic consumption • - 4 h post: 3.8–4.4 h after garlic consumption • - 6 h post: 5.8–6.4 h after garlic consumption • - 8 h post: 7.8–8.4 h after garlic consumption • - 24 h post: 23.8–25.6 h after garlic consumption
A creatinine kit (Labor+Technik Eberhard Lehmann GmbH, Berlin, Germany) was used to determine the creatinine content in each urine sample. The determination principle of this kit is based on the reaction of creatinine with picric acid under basic conditions (Jaffé reaction). The formed complex was detected photometrically at a wavelength of 492 nm.
For quantification purposes, the deuterated standards ^2H3-AMS, ^2H3-AMSO, and ^2H3-AMSO2 were added to the sample and stirred for 10 min. Subsequently, DCM was added in a ratio of 1:2 (DCM/human urine; v/v) and this solution was stirred for further 30 min at room temperature. To isolate the volatile fraction from the urine samples we then applied SAFE-distillation ([17]), thereby distilling the respective samples at 50°C. After completion of the distillation process, 10 mL of DCM were applied in each case to rinse the SAFE apparatus and to ensure complete transition of the volatile compounds. This process was repeated with another 10 mL of DCM. After thawing, the obtained aqueous distillate phase was extracted three times with 25 mL DCM. The organic phases were combined, dried over anhydrous Na2SO4 and concentrated to a total volume of 100 μL by means of Vigreux distillation and subsequent micro-distillation at 50°C. […]

metabolite concentration in urine, creatinine-normalized (U IV, 6 h post (6.08 h)): 0.04 µg/mmol creatinine | metabolite concentration in urine (U IV, 8 h post (8.05 h)): 0.3 µg/kg | metabolite concentration in urine, creatinine-normalized (U IV, 8 h post (8.05 h)): 0.1 µg/mmol creatinine | metabolite concentration in urine (U IV, 24 h post (24.03 h)): 0.5 µg/kg | metabolite concentration in urine, creatinine-normalized (U IV, 24 h post (24.03 h)): 0.1 µg/mmol creatinine | metabolite concentration in urine (U IV, pre (-0.05 h)): < LOD^1 | metabolite concentration in urine, creatinine-normalized (U IV, pre (-0.05 h)): < LOD^1 | metabolite concentration in urine (U IX, 0.5 h post (0.67 h)): 1.0 µg/kg | metabolite concentration in urine, creatinine-normalized (U IX, 0.5 h post (0.67 h)): 0.9 µg/mmol creatinine | metabolite concentration in urine (U IX, 1 h post (1.17 h)): 1.5 µg/kg | metabolite concentration in urine, creatinine-normalized (U IX, 1 h post (1.17 h)): 1.4 µg/mmol creatinine | metabolite concentration in urine (U IX, 2 h post (1.83 h)): 1.4 µg/kg | metabolite concentration in urine, creatinine-normalized (U IX, 2 h post (1.83 h)): 1.2 µg/mmol creatinine | metabolite concentration in urine (U IX, 4 h post (4.17 h)): 2.5 µg/kg | metabolite concentration in urine, creatinine-normalized (U IX, 4 h post (4.17 h)): 0.5 µg/mmol creatinine | metabolite concentration in urine (U IX, 6 h post (6.08 h)): 1.7 µg/kg | metabolite concentration in urine, creatinine-normalized (U IX, 6 h post (6.08 h)): 0.5 µg/mmol creatinine | metabolite concentration in urine (U IX, 8 h post (8.08 h)): 0.8 µg/kg | metabolite concentration in urine, creatinine-normalized (U IX, 8 h post (8.08 h)): 0.1 µg/mmol creatinine | metabolite concentration in urine (U IX, 24 h post (24.00 h)): traces^1 | metabolite concentration in urine, creatinine-normalized (U IX, 24 h post (24.00 h)): traces^1 | metabolite concentration in urine (U IX, pre (-0.08 h)): < LOD^1 | metabolite concentration in urine, creatinine-normalized (U IX, pre (-0.08 h)): < LOD^1 | metabolite concentration in urine (U V, 0.5 h post (0.50 h)): 0.5 µg/kg | metabolite concentration in urine, creatinine-normalized (U V, 0.5 h post (0.50 h)): 0.7 µg/mmol creatinine | metabolite concentration in urine (U V, 1 h post (1.00 h)): 0.7 µg/kg | metabolite concentration in urine, creatinine-normalized (U V, 1 h post (1.00 h)): 0.8 µg/mmol creatinine | metabolite concentration in urine (U V, 2 h post (2.00 h)): 0.7 µg/kg | metabolite concentration in urine, creatinine-normalized (U V, 2 h post (2.00 h)): 0.8 µg/mmol creatinine | metabolite concentration in urine (U V, 4 h post (4.00 h)): 0.9 µg/kg | metabolite concentration in urine, creatinine-normalized (U V, 4 h post (4.00 h)): 0.3 µg/mmol creatinine | metabolite concentration in urine (U V, 6 h post (6.00 h)): 0.7 µg/kg | metabolite concentration in urine, creatinine-normalized (U V, 6 h post (6.00 h)): 0.1 µg/mmol creatinine | metabolite concentration in urine (U V, 8 h post (8.00 h)): 0.3 µg/kg | metabolite concentration in urine, creatinine-normalized (U V, 8 h post (8.00 h)): 0.2 µg/mmol creatinine | metabolite concentration in urine (U V, 24 h post (24.00 h)): traces^1 | metabolite concentration in urine, creatinine-normalized (U V, 24 h post (24.00 h)): traces^1 | metabolite concentration in urine (U V, pre (-0.05 h)): < LOD^1 | metabolite concentration in urine, creatinine-normalized (U V, pre (-0.05 h)): < LOD^1 | metabolite concentration in urine (U VI, 0.5 h post (0.50 h)): 1.1 µg/kg | metabolite concentration in urine, creatinine-normalized (U VI, 0.5 h post (0.50 h)): 0.5 µg/mmol creatinine | metabolite concentration in urine (U VI, 1 h post (1.00 h)): 0.7 µg/kg | metabolite concentration in urine, creatinine-normalized (U VI, 1 h post (1.00 h)): 0.6 µg/mmol creatinine | metabolite concentration in urine (U VI, 2 h post (2.00 h)): 1.0 µg/kg | metabolite concentration in urine, creatinine-normalized (U VI, 2 h post (2.00 h)): 0.9 µg/mmol creatinine | metabolite concentration in urine (U VI, 4 h post (4.00 h)): 1.2 µg/kg | metabolite concentration in urine, creatinine-normalized (U VI, 4 h post (4.00 h)): 0.3 µg/mmol creatinine | metabolite concentration in urine (U VI, 6 h post (6.00 h)): 0.9 µg/kg | metabolite concentration in urine, creatinine-normalized (U VI, 6 h post (6.00 h)): 0.2 µg/mmol creatinine | metabolite concentration in urine (U VI, 8 h post (8.00 h)): 0.5 µg/kg | metabolite concentration in urine, creatinine-normalized (U VI, 8 h post (8.00 h)): 0.1 µg/mmol creatinine | metabolite concentration in urine (U VI, 24 h post (24.17 h)): traces^1 | metabolite concentration in urine, creatinine-normalized (U VI, 24 h post (24.17 h)): traces^1 | metabolite concentration in urine (U VI, pre (-0.05 h)): < LOD^1 | metabolite concentration in urine, creatinine-normalized (U VI, pre (-0.05 h)): < LOD^1 | metabolite concentration in urine (U VII, 0.5 h post (0.50 h)): 0.6 µg/kg | metabolite concentration in urine, creatinine-normalized (U VII, 0.5 h post (0.50 h)): 0.5 µg/mmol creatinine | metabolite concentration in urine (U VII, 1 h post (1.08 h)): 1.3 µg/kg
Compound: C=CCSC [AMS, allyl methyl sulfide]
